From publication PMC6682008 (ACS Omega, 2019)

Target: hSPR (human sepiapterin reductase) (Homo sapiens, UniProt P35270)
Experiment: colorimetric sepiapterin reduction, absorbance decrease at […] nm
Type: biochemical

Sequence of hSPR (human sepiapterin reductase) (P35270 whole entry): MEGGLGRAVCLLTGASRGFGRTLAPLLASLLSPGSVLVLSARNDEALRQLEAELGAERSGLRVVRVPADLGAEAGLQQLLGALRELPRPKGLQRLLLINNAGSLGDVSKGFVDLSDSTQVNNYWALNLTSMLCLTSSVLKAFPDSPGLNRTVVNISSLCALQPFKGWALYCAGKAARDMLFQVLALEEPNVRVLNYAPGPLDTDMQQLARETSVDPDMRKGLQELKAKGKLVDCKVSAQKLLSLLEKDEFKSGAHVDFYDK

IC50 [µM]	SMILES
8.26	C[C@H](Cc1ccc(O)c(O)c1)[C@@H](C)Cc1ccc(O)c(O)c1 [nordihydroguaiaretic acid]
11.6	CC(=O)NCCc1c[nH]c2ccc(O)cc12 [N-acetylserotonin, reference compound]
5.89	COc1ccc(/C=C/C(=O)Nc2ccccc2C(=O)O)cc1OC [tranilast, N-3′,4′-dimethoxycinnamoyl-anthranilic acid]
